Experimental findings from patent US12703836B2, “Mixture of compounds with high molecular weights, obtained from sugar cane wax (Saccharum officinarum L.)” (CENTRO NACIONAL DE INVESTIGACIONES CIENTÍFICAS, priority 2021, dated 2026) are described below.

The structures appear in SMILES notation.

The subject of assay [1] is pyramidal cells of the CA1 area of the hippocampus. As to the kind of experiment: Histological score of brain damage after ischemia/reperfusion. In kind it is in vivo, Mongolian gerbils. Conditions: gerbils, oral HMWS 200, AcGS 132, AlcG 40, AldG 28, AcGL 200, ASA 60 mg/kg. An excerpt: For the evaluation of the neuroprotective effect of the mixture of high molecular weight substances, the object of the present invention, an experimental model of global cerebral ischemia by occlusion and reperfusion of the carotid arteries was used. The composition of High Molecular Weight Substances (HMWS) obtained in example 1 was subjected to a preclinical test with animals, in which its pharmacological effect was compared with the effects of pure extracts of Fatty Acids in the form of Salts (AcGS), fatty alcohols (AlcG) and high molecular weight aldehydes (AldG), which were administered in the dose equivalent to the proportion in which each one is present in 200 mg/kg of the HMWS Active Ingredient. Furthermore, the effect of HMWS was compared with the effect of pure free fatty acid (AcGL) extract administered at equal doses. Once the quarantine was over, the gerbils were distributed into 8 groups: a negative control that only received vehicle and cerebral ischemia (CI) was not induced and 7 groups with induced CI. […] All treatments were administered orally through intragastric intubation (0.5 mL/70 g body weight) 1 hour prior to induction of ischemia. […] Sections from each brain were evaluated by a light microscopy scoring system for determination of damage to the pyramidal cells of the CA1 area of the hippocampus with bilateral averages. […]

Assay [2] relates to plasma sulfhydryl (SH) groups. Kind of assay: Plasma protein oxidation (sulfhydryl groups) after cerebral ischemia/reperfusion. In kind it is in vivo, Mongolian gerbils. Conditions: gerbils, plasma after I/R; oral HMWS 200, AcGS 132, AlcG 40, AldG 28, AcGL 200, ASA 60 mg/kg. An excerpt: For the evaluation of the neuroprotective effect of the mixture of high molecular weight substances, the object of the present invention, an experimental model of global cerebral ischemia by occlusion and reperfusion of the carotid arteries was used. The composition of High Molecular Weight Substances (HMWS) obtained in example 1 was subjected to a preclinical test with animals, in which its pharmacological effect was compared with the effects of pure extracts of Fatty Acids in the form of Salts (AcGS), fatty alcohols (AlcG) and high molecular weight aldehydes (AldG), which were administered in the dose equivalent to the proportion in which each one is present in 200 mg/kg of the HMWS Active Ingredient. Furthermore, the effect of HMWS was compared with the effect of pure free fatty acid (AcGL) extract administered at equal doses. […] To determine lipid peroxidation, the formation of substances reactive to thiobarbituric acid (SRATB) was quantified (according to Ohkawa et al., 1979) in plasma, and was expressed as nmol malondialdehyde (MDA)/mg of protein. To determine protein oxidation, sulfhydryl (SH) groups were determined (technique described by Miao-Lin Hu, 1994). […] The absorbance of the supernatant was read at 412 nm. […] The protein concentration was determined by the modified Lowry method ([…], 1987).

The subject of assay [3] is rabbits with spinal cord damage induced by Ischemia/Reperfusion (I/R). Kind of assay: Neurological deficit score in spinal cord ischemia/reperfusion (abdominal aorta occlusion). In kind it is in vivo, New Zealand rabbits. Conditions: lower = better.
Description: The neuroprotective effect of the HMWS mixture, object of the present invention, was also investigated using an experimental model of induction of ischemia in the spinal cord. […] Furthermore, the effect of HMWS was compared with that of pure extract of free fatty acids (AcGL) administered at equal doses.
Male New Zealand rabbits (1.8-2.2 kg) were used, which were adapted for 15 days to laboratory conditions (temperature of 20 to 25° C., relative humidity of 60±5%, light/dark cycles of 12 hours), with free access to water and food.
The substances HMWS, AcGS, AlcG, AldG, AcGL and aspirin were prepared as suspensions in an acacia/water vehicle (1%). Once the quarantine was completed, the rabbits were distributed into 8 groups: a negative control that only received vehicle and was not induced ischemia and 7 groups with spinal cord ischemia: a positive control treated only with the vehicle, and 6 groups were treated with HMWS (200 mg/kg), AcGS (132 mg/kg), AlcG (40 mg/kg), AldG (28 mg/kg), AcGL (200 mg/kg), and aspirin (2 mg/kg) as reference substance. […]
For the induction of ischemia in the spinal cord, the rabbits were anesthetized with thiopental (20 mg/kg i.v.). […] At 4 and 24 hours of reperfusion, the neurological deficit of the animals was blindly evaluated by 2 independent observers (according to Zivin et al., 1982). […]
In assay [4] the test system is spinal cord of rabbits with Ischemia/Reperfusion (I/R). As to the kind of experiment: Histological score of the spinal cord after ischemia/reperfusion. Conditions: oral for 10 days: HMWS 200, AcGS 132, AlcG 40, AldG 28, AcGL 200, ASA 60 (table) mg/kg. The assay is classed as in vivo, New Zealand rabbits.
Description: Furthermore, the effect of HMWS was compared with that of pure extract of free fatty acids (AcGL) administered at equal doses.
The substances HMWS, AcGS, AlcG, AldG, AcGL and aspirin were prepared as suspensions in an acacia/water vehicle (1%). Once the quarantine was completed, the rabbits were distributed into 8 groups: a negative control that only received vehicle and was not induced ischemia and 7 groups with spinal cord ischemia: a positive control treated only with the vehicle, and 6 groups were treated with HMWS (200 mg/kg), AcGS (132 mg/kg), AlcG (40 mg/kg), AldG (28 mg/kg), AcGL (200 mg/kg), and aspirin (2 mg/kg) as reference substance. All treatments were administered orally via intragastric tubing (1 mL/2 kg body weight) for 10 days.
For the induction of ischemia in the spinal cord, the rabbits were anesthetized with thiopental (20 mg/kg i.v.). The abdomen was depilated, an antiseptic solution was applied, an incision was made in the ventral midline and the retroperitoneal space was penetrated. The aorta and left renal artery were dissected and exposed. The aorta was ligated by placing a clip immediately below the left renal artery for 20 minutes, after which it was removed and the reperfusion period began. […] At 4 and 24 hours of reperfusion, the neurological deficit of the animals was blindly evaluated by 2 independent observers (according to Zivin et al., 1982). […]

For `CC(=O)Oc1ccccc1C(=O)O` [ASA, aspirin], the “Histologic Score (brain, CA1, scale 0-4)” value in assay [1] (24 hours reperfusion, mean ± SEM, positive control 2.96 ± 0.07) came to 2.00 ± 0.15. The “Inhibition (%) of histological score of brain damage” value in assay [1] (I/R) is 32.4%. The “Inhibition (%) of SH groups increase” value in assay [2] stood at 12%. Further, in assay [3] (4 h of reperfusion, oral for 10 days: HMWS (example 2) 200, AcGS 132, AlcG 40, AldG 28, AcGL 200, ASA 2 mg/kg, positive control 0.30 ± 0.17, negative 2 ± 0), the “Score (neurological deficit) 4 h” value is 0.90 ± 0.25. For the same compound, the “Score (neurological deficit) 24 h” value in assay [3] (24 h of reperfusion, oral for 10 days: HMWS 200, AcGS 132, AlcG 40, AldG 28, AcGL 200, ASA 2 mg/kg, positive control 0.15 ± 0.1, negative 2 ± 0) was found to be 0.50 ± 0.24. Also, in assay [4] (24 hours after reperfusion, positive control 0.00 ± 0.05), the “Histologic Score (spinal cord, 3 = no injuries, 0 = severe)” value was found to be 0.9 ± 0.15. Further, in assay [4] (I/R), the “Inhibition (%) of histological damage in the spinal cord” value is given as 30%.
